Values of other authors, collected in patent US4310517A, “Tumor-resolving and histolytic medicaments and their use” (Troponwerke GmbH & Co., KG, priority 1976, dated 1982).
Where two headings read alike, the source gives them in different places.

Tested on: tumour cells

SMILES: O=P1(N(CCCl)CCCl)NCCCO1 (centres unmarked) [cyclophosphamide]
- tumour cells destroyed (LD10 dosage): 99.999%
- tumour cells destroyed (one eighth of the LD10 dose): 90%
